The values that follow come from paper PMC8151276, “An Integrated Approach toward NanoBRET Tracers for Analysis of GPCR Ligand Engagement” (Molecules, 2021).

Format in all cases: binding
For assay [1], the target named is T1, CXCR1 (Homo sapiens, UniProt P25024).
T1 construct: purchased Promega (in-house HiBiT-GPCR construct library, NanoBRET)
T1 sequence (P25024 1-350): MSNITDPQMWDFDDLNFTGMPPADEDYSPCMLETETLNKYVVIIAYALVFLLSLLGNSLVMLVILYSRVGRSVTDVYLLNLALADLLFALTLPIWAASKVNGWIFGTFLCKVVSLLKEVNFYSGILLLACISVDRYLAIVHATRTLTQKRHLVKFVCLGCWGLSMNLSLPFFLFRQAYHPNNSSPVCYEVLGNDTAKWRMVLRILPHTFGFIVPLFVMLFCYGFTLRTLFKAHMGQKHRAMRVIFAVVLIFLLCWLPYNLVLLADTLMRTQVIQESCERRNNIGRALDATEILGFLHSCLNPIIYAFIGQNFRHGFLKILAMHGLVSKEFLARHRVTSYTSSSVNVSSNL
The experiment in a line: NanoBRET screen HiBiT-CXCR1 in HEK293. As for the experimental part:
(§1) Each tracer candidate was screened across the entire library of HiBiT-GPCR constructs using NanoBRET as the detection modality. As depicted in Figure 4A, the specificity of interactions was evaluated through decrease in BRET due to competitive displacement of a bound tracer by excess parental compound. Each tracer was analyzed for binding to each HiBiT-GPCR fusion in the absence and in the presence of competing parental compound. Briefly, HEK293 cells were transfected with HiBiT-GPCR constructs diluted into promoterless DNA to reduce expression and maximize translocation to the cell surface. Each tracer candidate was then screened at concentrations of 1 μM and 0.1 μM across cells expressing these fusions. Cells were treated for 1.5 h with tracer either alone or in the presence of 20 μM competing parental compound (i.e., control). BRET was measured upon addition of purified LgBiT and subsequent complementation with HiBiT genetically fused to a GPCR. The specificity of interactions was assessed through a decrease in BRET signal due to competitive displacement of the bound tracer. To further gauge the robustness of these interactions, the fold response over the control (i.e., BRETtracer/BRETcontrol) was calculated. We chose a 1.5-fold response, which translates to ≥7-fold signal over noise as the minimal threshold required to score an interaction as positive. […]. Below we highlight the screening results obtained for our exemplary fluorescent tracers based on Clozapine, Amitriptyline and AZD1283.
(§2) HiBiT-GPCR DNA constructs were diluted in 10 mM Tris pH 8 to a final concentration of 0.01 μg/μL, arrayed in 96-well plates and stored at −20 °C. For transfection, HEK293 cells were suspended in Opti-MEM (without phenol red) supplemented with 2% fetal bovine serum (Seradigm) and 100 units/mL penicillin–streptomycin (Gibco) at a final concentration of 220,000 cells/mL and dispensed into white 96-well plates at 90 μL/well. Subsequent transfections and screens were carried using an Agilent Bravo Automated Liquid Handling Platform. First, the 96-well HiBiT DNA arrays were diluted 25-fold in Opti-MEM (without serum or phenol red) to a final concentration of 0.0004 μg/μL and 20 μL of the diluted DNAs were transferred into new 96-well plates. Next, promoterless carrier DNA (1 μg/μL) was diluted 25-fold (0.04 μg/μL) and then dispensed into the diluted arrays at 20 μL/well. Following brief mixing, Viafect transfection reagent (Promega) diluted 16-fold into Opti-MEM was dispensed into the plates at 40 μL/well. After mixing by pipetting, plates were incubated for 10 min on the pipetting station deck. The DNA-transfection reagent complexes were then added to plates containing cells. To facilitate the screen, 10 μL of DNA-transfection reagent complexes were added in duplicates to the top 4 and bottom 4 rows, resulting in two identical 48-well arrays per plate. Plates with transfected cells were incubated for 18–20 h at 37 °C/5% CO2. A screen of each tracer across the entire library using two different concentrations requires duplicate plates of transfected cells. Depending on the number of tracers being screened, transfections can be scaled up using the same ratios. The next day, for each tracer, four 20× screening solutions in tracer dilution buffer (Promega) were prepared: two duplicates at final concentration of 20 μM and two duplicates at a final concentration of 2 μM. A competing unmodified compound was added to one of each duplicate at a final concentration of 400 μM. The four resulting solutions were diluted 4-fold in Opti-MEM without serum or phenol red to generate 5× solutions (5 µM and 0.5 µM tracer +/− 100 μM competing compound). To screen the library, a BioTek MultiFlo FX liquid dispenser was used to dispense 22.5 µL of tracer solution to the top 4 rows and 22.5 µL tracer + competing compound solution to the 4 bottom rows. Plates were briefly mixed on an orbital shaker and incubated for 1.5 h at room temperature. […]

Assay [2] has as its target T2, GRM8 (Homo sapiens, UniProt O00222).
T2 construct: purchased Promega (in-house HiBiT-GPCR construct library, NanoBRET)
The assay is described as follows: NanoBRET screen HiBiT-GRM8 in HEK293. As for the experimental part: as §1, §2

Assay [3] has as its target T3, XCR1 (Homo sapiens, UniProt P46094).
T3 construct: purchased Promega (in-house HiBiT-GPCR construct library, NanoBRET)
T3 sequence (P46094 1-333): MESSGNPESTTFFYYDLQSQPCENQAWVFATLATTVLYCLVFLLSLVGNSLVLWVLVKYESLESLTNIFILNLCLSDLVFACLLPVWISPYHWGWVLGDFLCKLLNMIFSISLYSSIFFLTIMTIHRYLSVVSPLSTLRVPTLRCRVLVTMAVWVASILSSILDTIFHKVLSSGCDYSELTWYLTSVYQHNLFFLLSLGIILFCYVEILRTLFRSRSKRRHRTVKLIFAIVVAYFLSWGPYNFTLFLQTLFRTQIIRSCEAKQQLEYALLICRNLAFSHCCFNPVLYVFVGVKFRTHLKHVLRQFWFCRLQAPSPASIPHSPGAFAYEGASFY
The experiment in a line: NanoBRET screen HiBiT-XCR1 in HEK293. As for the experimental part: as §1, §2

Assay [4] deals with T4, HTR1B (Homo sapiens, UniProt P28222).
T4 construct: purchased Promega (in-house HiBiT-GPCR construct library, NanoBRET)
The assay is described as follows: NanoBRET screen HiBiT-HTR1B in HEK293. As for the experimental part: as §1, §2

The target of assay [5] is T5, LHCGR (Homo sapiens, UniProt P22888).
T5 construct: purchased Promega (in-house HiBiT-GPCR construct library, NanoBRET)
The experiment in a line: NanoBRET screen HiBiT-LHCGR in HEK293. As for the experimental part:
as §1, §2

Assay [6] has as its target T6, CCR1 (Homo sapiens, UniProt P32246).
T6 construct: purchased Promega (in-house HiBiT-GPCR construct library, NanoBRET)
T6 sequence (P32246 1-355): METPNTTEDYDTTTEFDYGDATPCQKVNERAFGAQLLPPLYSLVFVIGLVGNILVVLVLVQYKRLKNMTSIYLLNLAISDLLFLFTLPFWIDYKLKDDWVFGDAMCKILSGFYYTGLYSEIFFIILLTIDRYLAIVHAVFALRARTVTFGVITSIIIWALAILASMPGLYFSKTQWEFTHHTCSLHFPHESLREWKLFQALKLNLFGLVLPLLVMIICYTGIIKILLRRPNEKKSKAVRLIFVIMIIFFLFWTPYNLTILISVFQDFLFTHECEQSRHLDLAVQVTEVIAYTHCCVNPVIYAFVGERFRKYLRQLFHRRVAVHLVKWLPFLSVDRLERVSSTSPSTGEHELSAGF
The assay is described as follows: NanoBRET screen HiBiT-CCR1 in HEK293. As for the experimental part:
as §1, §2

T2 sequence (O00222 34-908): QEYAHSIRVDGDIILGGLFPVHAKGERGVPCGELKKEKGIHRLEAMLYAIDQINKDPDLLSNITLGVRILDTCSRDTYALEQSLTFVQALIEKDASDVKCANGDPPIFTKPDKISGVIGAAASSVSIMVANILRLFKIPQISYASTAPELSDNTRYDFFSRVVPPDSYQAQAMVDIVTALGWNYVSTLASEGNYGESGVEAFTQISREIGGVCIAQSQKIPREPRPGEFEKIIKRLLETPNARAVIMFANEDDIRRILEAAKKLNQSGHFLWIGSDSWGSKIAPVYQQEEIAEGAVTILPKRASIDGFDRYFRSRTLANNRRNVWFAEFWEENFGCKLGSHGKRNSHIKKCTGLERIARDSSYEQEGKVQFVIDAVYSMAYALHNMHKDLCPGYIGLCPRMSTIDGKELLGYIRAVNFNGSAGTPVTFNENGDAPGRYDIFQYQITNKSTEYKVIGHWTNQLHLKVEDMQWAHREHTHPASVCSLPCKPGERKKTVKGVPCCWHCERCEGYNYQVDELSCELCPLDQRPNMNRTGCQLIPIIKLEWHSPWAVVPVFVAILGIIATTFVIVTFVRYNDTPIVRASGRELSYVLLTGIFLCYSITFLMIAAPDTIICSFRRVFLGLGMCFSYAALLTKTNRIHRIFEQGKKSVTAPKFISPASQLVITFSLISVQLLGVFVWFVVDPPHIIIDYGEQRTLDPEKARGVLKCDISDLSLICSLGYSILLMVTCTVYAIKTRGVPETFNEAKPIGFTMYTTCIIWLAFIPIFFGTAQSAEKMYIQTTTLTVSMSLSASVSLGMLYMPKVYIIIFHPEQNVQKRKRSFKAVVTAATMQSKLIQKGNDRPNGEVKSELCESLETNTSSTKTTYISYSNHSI
T4 sequence (P28222 whole entry): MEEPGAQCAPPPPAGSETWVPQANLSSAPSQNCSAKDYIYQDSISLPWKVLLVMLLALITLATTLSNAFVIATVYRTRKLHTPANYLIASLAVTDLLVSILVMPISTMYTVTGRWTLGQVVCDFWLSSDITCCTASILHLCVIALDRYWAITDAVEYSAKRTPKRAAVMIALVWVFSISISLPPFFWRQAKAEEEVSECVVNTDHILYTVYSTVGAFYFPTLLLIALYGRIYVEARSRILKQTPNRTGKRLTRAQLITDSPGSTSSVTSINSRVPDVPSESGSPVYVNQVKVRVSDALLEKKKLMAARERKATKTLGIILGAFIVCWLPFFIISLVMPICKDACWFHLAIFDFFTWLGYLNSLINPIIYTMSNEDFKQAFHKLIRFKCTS
T5 sequence (P22888 27-699): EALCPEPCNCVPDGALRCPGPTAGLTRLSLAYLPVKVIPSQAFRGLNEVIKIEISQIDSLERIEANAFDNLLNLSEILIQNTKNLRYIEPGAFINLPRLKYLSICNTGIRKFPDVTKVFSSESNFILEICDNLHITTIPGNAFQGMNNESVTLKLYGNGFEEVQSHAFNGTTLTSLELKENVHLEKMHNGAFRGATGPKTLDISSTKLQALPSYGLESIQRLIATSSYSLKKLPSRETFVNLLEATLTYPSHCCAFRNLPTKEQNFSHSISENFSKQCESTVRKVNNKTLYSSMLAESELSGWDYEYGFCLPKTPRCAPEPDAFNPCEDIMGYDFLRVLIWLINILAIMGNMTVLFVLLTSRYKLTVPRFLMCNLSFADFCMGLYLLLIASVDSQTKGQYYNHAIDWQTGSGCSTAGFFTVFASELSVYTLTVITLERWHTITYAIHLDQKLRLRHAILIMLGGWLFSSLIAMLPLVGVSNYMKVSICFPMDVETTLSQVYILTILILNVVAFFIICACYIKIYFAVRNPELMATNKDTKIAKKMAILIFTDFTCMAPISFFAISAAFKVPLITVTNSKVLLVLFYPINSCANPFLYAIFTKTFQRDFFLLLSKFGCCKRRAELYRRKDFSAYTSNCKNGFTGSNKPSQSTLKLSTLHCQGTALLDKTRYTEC

As for `CN1CCN(C2=Nc3cc(Cl)ccc3N(CC(=O)NCCOCCOCCOCCOCCNC(=O)CCc3ccc4n3[B-](F)(F)[N+]3=C(c5ccc[nH]5)C=CC3=C4)c3ccccc32)CC1` [Clozapine-c-2-NB590], the “NanoBRET Fold Response” value in assay [1] (CXCR1, 0.1μM tracer) is listed as 0.99; in assay [1] (CXCR1, 1μM tracer) it was 0.94; in assay [2] (GRM8, 0.1μM tracer), 0.97; in assay [2] (GRM8, 1μM tracer), 1.07; in assay [3] (XCR1, 0.1μM tracer) it was 0.99; in assay [3] (XCR1, 1μM tracer) it was 1.03. In addition, the “NanoBRET Fold Response” value in assay [4] (HTR1B, 0.1μM tracer) was 0.95; in assay [4] (HTR1B, 1μM tracer), 1.47; in assay [5] (LHCGR, 0.1μM tracer), 1.05; in assay [5] (LHCGR, 1μM tracer) it was 1.07; in assay [6] (CCR1, 0.1μM tracer), 1.05; in assay [6] (CCR1, 1μM tracer) it was 0.98.

On to `N#CN=C(NCCCOc1cccc(CN2CCCCC2)c1)NCCNC(=O)CCOCCOCCOCCOCCNC(=O)CCc1ccc2n1[B-](F)(F)[N+]1=C(c3ccc[nH]3)C=CC1=C2` [Aminopotentidine-2-NB590], for which the “NanoBRET Fold Response” value worked out at 1.03 in assay [1] (CXCR1, tracer 0.1μM); 0.99 in assay [1] (CXCR1, tracer 1μM); 1.01 in assay [2] (GRM8, tracer 0.1μM); 0.99 in assay [2] (GRM8, tracer 1μM); 1.11 in assay [3] (XCR1, tracer 0.1μM); 0.87 in assay [3] (XCR1, tracer 1μM). The “NanoBRET Fold Response” value came out at 0.98 in assay [4] (HTR1B, tracer 0.1μM); 1.03 in assay [4] (HTR1B, tracer 1μM); 1.03 in assay [5] (LHCGR, tracer 0.1μM); 1.00 in assay [5] (LHCGR, tracer 1μM); 0.95 in assay [6] (CCR1, tracer 0.1μM); 1.03 in assay [6] (CCR1, tracer 1μM).

Take `COc1ccc2c(n1)c(CCNC(C)=O)cn2CCNC(=O)CCc1ccc2n1[B-](F)(F)[N+]1=C(c3ccc[nH]3)C=CC1=C2` [Azamelatonin-1-NB590]: the “NanoBRET Fold Response” value in assay [1] (0.1μM tracer) is given as 0.88; in assay [1] (1μM tracer), 1.15; in assay [2] (0.1μM tracer), 0.96; in assay [2] (1μM tracer) it was 0.95; in assay [3] (0.1μM tracer), 1.33; in assay [3] (1μM tracer) it was 1.18. Further, the “NanoBRET Fold Response” value in assay [4] (0.1μM tracer) was found to be 0.74; in assay [4] (1μM tracer) it was 0.74; in assay [5] (0.1μM tracer) it was 1.03; in assay [5] (1μM tracer), 1.05; in assay [6] (0.1μM tracer), 0.90; in assay [6] (1μM tracer) it was 1.04.

In the case of `CC(C)N(CC[C@H](c1ccccc1)c1cc(CCNC(=O)c2ccc(CNC(=O)CCc3ccc4n3[B-](F)(F)[N+]3=C(c5ccc[nH]5)C=CC3=C4)cc2)ccc1O)C(C)C` [Tolterodine-BZ-NB590], the “NanoBRET Fold Response” value in assay [1] (CXCR1, tracer 0.1μM) came out at 0.98; in assay [1] (CXCR1, tracer 1μM), 1.11; in assay [2] (GRM8, tracer 0.1μM) it was 1.02; in assay [2] (GRM8, tracer 1μM), 1.03; in assay [3] (XCR1, tracer 0.1μM), 0.80; in assay [3] (XCR1, tracer 1μM) it was 0.95. Further, the “NanoBRET Fold Response” value was 1.12 in assay [4] (HTR1B, tracer 0.1μM); 1.33 in assay [4] (HTR1B, tracer 1μM); 0.98 in assay [5] (LHCGR, tracer 0.1μM); 1.05 in assay [5] (LHCGR, tracer 1μM); 1.09 in assay [6] (CCR1, tracer 0.1μM); 0.96 in assay [6] (CCR1, tracer 1μM).

As to `O=C(CCc1ccc2n1[B-](F)(F)[N+]1=C(c3ccc[nH]3)C=CC1=C2)NCCOCCOCCNC(=O)OCCOCCN1CCN(C2=Nc3ccccc3Sc3ccccc32)CC1` [Quetiapine-a-2-NB590], the “NanoBRET Fold Response” value was 0.98 in assay [1] (CXCR1, tracer 0.1μM); 0.95 in assay [1] (CXCR1, tracer 1μM); 0.98 in assay [2] (GRM8, tracer 0.1μM); 1.00 in assay [2] (GRM8, tracer 1μM); 1.07 in assay [3] (XCR1, tracer 0.1μM); 1.04 in assay [3] (XCR1, tracer 1μM). Besides, the “NanoBRET Fold Response” value in assay [4] (HTR1B, tracer 0.1μM) stood at 1.03; in assay [4] (HTR1B, tracer 1μM), 1.58; in assay [5] (LHCGR, tracer 0.1μM), 1.01; in assay [5] (LHCGR, tracer 1μM), 0.79; in assay [6] (CCR1, tracer 0.1μM) it was 0.99; in assay [6] (CCR1, tracer 1μM), 0.99.

Take `Cc1cc2c(s1)Nc1ccccc1N=C2N1CCN(CCCNC(=O)CCOCCOCCOCCOCCNC(=O)CCc2ccc3n2[B-](F)(F)[N+]2=C(c4ccc[nH]4)C=CC2=C3)CC1` [Olanzapine-a-2-NB590]: the “NanoBRET Fold Response” value in assay [1] (CXCR1, tracer 0.1μM) was found to be 1.00; in assay [1] (CXCR1, tracer 1μM), 0.99; in assay [2] (GRM8, tracer 0.1μM), 0.97; in assay [2] (GRM8, tracer 1μM), 1.04; in assay [3] (XCR1, tracer 0.1μM) it was 0.88; in assay [3] (XCR1, tracer 1μM), 1.27. The “NanoBRET Fold Response” value in assay [4] (HTR1B, tracer 0.1μM) came to 2.53; in assay [4] (HTR1B, tracer 1μM) it was 2.81; in assay [5] (LHCGR, tracer 0.1μM) it was 1.00; in assay [5] (LHCGR, tracer 1μM), 1.01; in assay [6] (CCR1, tracer 0.1μM), 1.02; in assay [6] (CCR1, tracer 1μM), 0.98.
